Experimental data: paper PMC6979384, “Characterization of the plant homeodomain (PHD) reader family for their histone tail interactions” (Epigenetics & Chromatin, 2020)

Legend:
[1] = dCypher AlphaScreen Phase A, optimal reader concentration range; assay type: binding; details: 100 nM biotinylated peptide; 30 min + 60 min at 23 °C; AlphaLISA; n = 2
Experimental: Fig. 3 dCypher histone peptide-binding assays define the PTM recognition preference of PHD proteins with high sensitivity. a–h Binding curves to determine optimal reader protein concentration for full peptide library screening on the dCypher® AlphaScreen® platform (see “Methods”). X-axes are log(protein concentration (M)) at constant peptide concentration (100 nM); Y-axes are AlphaScreen counts, representing relative strength of binding (n = 2; error bars are S.D.). i Heat map represents relative binding to H3 N-terminal peptides (left) by PHD-containing GST-tagged proteins (top) using the dCypher AlphaScreen platform. Protein concentrations can be found in Additional file 5: Table S4. Binding strength is indicated by color gradient from green to yellow (stronger to weaker). The asterisk (*) by MLL5 signifies its general preference for H3K4 methylation. Alpha counts (n = 2) were normalized individually for each protein to the highest signal for each respective assay. For full dCypher peptide screen data, see Additional file 4: Table S3
We next employed a highly sensitive proximity-based AlphaScreen histone peptide assay (dCypher®) to provide a third and orthogonal approach to analyzing the histone binding preferences for a subset of the 31 PHD proteins with respect to various histone tail PTMs. In this assay, biotinylated peptides are bound to streptavidin “donor” beads and the GST-tagged reader domains bound to Glutathione “acceptor” beads. […] Initial binding assays were conducted for each fusion protein using three peptides [H3 (1–20) with K4me0, H3K4me3 or H3K9me3] to determine the optimal reader domain concentration for full peptide library studies (Fig. 3a–h; Additional file 4: Table S3 and Additional file 5: Table S4). […]
The dCypher peptide screen assay was performed as previously described. […] Plates were incubated at 23 °C in subdued lighting for 60 min and AlphaLISA signal measured on a PerkinElmer 2104 EnVision (680 nm laser excitation, 570 nm emission filter ± 50 nm bandwidth). […]

[2] = tested on: H3K4me0 readers; assay: dCypher AlphaScreen Phase B (full peptide screen), H3K4me0 readers together; assay type: binding, human; details: 100 nM peptide, 23 °C, n = 2
Experimental: Fig. 3 dCypher histone peptide-binding assays define the PTM recognition preference of PHD proteins with high sensitivity. a–h Binding curves to determine optimal reader protein concentration for full peptide library screening on the dCypher® AlphaScreen® platform (see “Methods”). X-axes are log(protein concentration (M)) at constant peptide concentration (100 nM); Y-axes are AlphaScreen counts, representing relative strength of binding (n = 2; error bars are S.D.). i Heat map represents relative binding to H3 N-terminal peptides (left) by PHD-containing GST-tagged proteins (top) using the dCypher AlphaScreen platform. Protein concentrations can be found in Additional file 5: Table S4. […]
Once the optimal protein concentration ranges for each of the eight readers were determined, we conducted the full dCypher peptide screen (293 histone peptides) (Fig. 3i; Additional file 4: Table S3).
The dCypher peptide screen assay was performed as previously described. Briefly, 5 μL of GST-tagged reader domains (optimal protein concentration for library screening determined by initial binding curves to candidate peptides) were incubated with 5 μL of 400 nM (100 nM Final) biotinylated histone peptides (EpiCypher) for 30 min at 23 °C in 1× AlphaLISA Epigenetics buffer + epigenetics buffer supplement (PerkinElmer, AL1008) in a 384-well plate. […]

[3] = tested on: SP140L; assay: Histone peptide microarray; assay type: binding, human; details: sheet "Array Heatmap"; GST-tagged reader; histone peptide array, total n = 4
Outline: (§1)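 GST-PHD reader, 0.5 μM, probed on 293-peptide histone array (single/combinatorial PTMs); optimized array protocol; signal = mean ± SD, n = 4.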

[4] = tested on: KDM5A (3); assay: Histone peptide microarray; assay type: binding, human; details: sheet "Array Heatmap"; GST-tagged reader; histone peptide array, total n = 4
Outline: as §1

[5] = tested on: TRIM66 (PB); assay: Histone peptide microarray; assay type: binding, human; details: sheet "Array Heatmap"; GST-tagged reader; histone peptide array, total n = 4
Outline: as §1

[6] = tested on: KDM5A (1); assay: Histone peptide microarray; assay type: binding, human; details: sheet "Array Heatmap"; GST-tagged reader; histone peptide array, total n = 4
Outline: as §1

[7] = tested on: MLL5; assay: Histone peptide microarray; assay type: binding, human; details: sheet "Array Heatmap"; GST-tagged reader; histone peptide array, total n = 4
Outline: as §1

[8] = tested on: ING5; assay: Histone peptide microarray; assay type: binding, human; details: sheet "Array Heatmap"; GST-tagged reader; histone peptide array, total n = 4
Outline: as §1

[9] = tested on: CHD5 (PCC); assay: Histone peptide microarray; assay type: binding, human; details: sheet "Array Heatmap"; GST-tagged reader; histone peptide array, total n = 4
Outline: as §1

[10] = tested on: PHF2; assay: Histone peptide microarray; assay type: binding, human; details: sheet "Array Heatmap"; GST-tagged reader; histone peptide array, total n = 4
Outline: as §1

[11] = tested on: KDM5B (3); assay: Histone peptide microarray; assay type: binding, human; details: sheet "Array Heatmap"; GST-tagged reader; histone peptide array, total n = 4
Outline: as §1

[12] = tested on: ING3; assay: Histone peptide microarray; assay type: binding, human; details: sheet "Array Heatmap"; GST-tagged reader; histone peptide array, total n = 4
Outline: as §1

[13] = tested on: PHRF1 (RP); assay: Histone peptide microarray; assay type: binding, human; details: sheet "Array Heatmap"; GST-tagged reader; histone peptide array, total n = 4
Outline: as §1

[14] = tested on: CHD4 (PPCC); assay: Histone peptide microarray; assay type: binding, human; details: sheet "Array Heatmap"; GST-tagged reader; histone peptide array, total n = 4
Outline: as §1

[15] = tested on: BAZ2B; assay: Histone peptide microarray; assay type: binding, human; details: sheet "Array Heatmap"; GST-tagged reader; histone peptide array, total n = 4
Outline: as §1

[16] = tested on: RAG2; assay: Histone peptide microarray; assay type: binding, human; details: sheet "Array Heatmap"; GST-tagged reader; histone peptide array, total n = 4
Outline: as §1

[17] = tested on: MORC3 (CW); assay: Histone peptide microarray; assay type: binding, human; details: sheet "Array Heatmap"; GST-tagged reader; histone peptide array, total n = 4
Outline: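 Readout is array binding signal, reported as the mean and standard deviation over four replicates. Each purified GST-fused PHD domain was incubated at 0.5 μM with a library of 293 modified histone peptides.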

[18] = tested on: DPF2 (PPC2W2); assay: Histone peptide microarray; assay type: binding, human; details: sheet "Array Heatmap"; GST-tagged reader; histone peptide array, total n = 4
Outline: as §1

[19] = tested on: ING1; assay: Histone peptide microarray; assay type: binding, human; details: sheet "Array Heatmap"; GST-tagged reader; histone peptide array, total n = 4
Outline: as §1

[20] = tested on: DIDO1; assay: Histone peptide microarray; assay type: binding, human; details: sheet "Array Heatmap"; GST-tagged reader; histone peptide array, total n = 4
Outline: as §1

[21] = tested on: PHF13; assay: Histone peptide microarray; assay type: binding, human; details: sheet "Array Heatmap"; GST-tagged reader; histone peptide array, total n = 4
Outline: as §1

[22] = tested on: ING4; assay: Histone peptide microarray; assay type: binding, human; details: sheet "Array Heatmap"; GST-tagged reader; histone peptide array, total n = 4
Outline: as §1

[23] = tested on: BPTF (PB); assay: Histone peptide microarray; assay type: binding, human; details: sheet "Array Heatmap"; GST-tagged reader; histone peptide array, total n = 4
Outline: as §1

[24] = tested on: KDM4C (TTP); assay: Histone peptide microarray; assay type: binding, human; details: sheet "Array Heatmap"; GST-tagged reader; histone peptide array, total n = 4
Outline: as §1

[25] = tested on: PHF23; assay: Histone peptide microarray; assay type: binding, human; details: sheet "Array Heatmap"; GST-tagged reader; histone peptide array, total n = 4
Outline: as §1

[26] = tested on: PHF8; assay: Histone peptide microarray; assay type: binding, human; details: sheet "Array Heatmap"; GST-tagged reader; histone peptide array, total n = 4
Outline: as §1

[27] = tested on: ING2; assay: Histone peptide microarray; assay type: binding, human; details: sheet "Array Heatmap"; GST-tagged reader; histone peptide array, total n = 4
Outline: as §1

[28] = tested on: PHF21A; assay: Histone peptide microarray; assay type: binding, human; details: sheet "Array Heatmap"; GST-tagged reader; histone peptide array, total n = 4
Outline: as §1

[29] = tested on: TAF3; assay: Histone peptide microarray; assay type: binding, human; details: sheet "Array Heatmap"; GST-tagged reader; histone peptide array, total n = 4
Outline: as §1

[30] = tested on: KDM7A; assay: Histone peptide microarray; assay type: binding, human; details: sheet "Array Heatmap"; GST-tagged reader; histone peptide array, total n = 4
Outline: as §1

[31] = tested on: AIRE (PP); assay: Histone peptide microarray; assay type: binding, human; details: sheet "Array Heatmap"; GST-tagged reader; histone peptide array, total n = 4
Outline: as §1

[32] = tested on: KDM5B (1); assay: Histone peptide microarray; assay type: binding, human; details: sheet "Array Heatmap"; GST-tagged reader; histone peptide array, total n = 4
Outline: as §1

[33] = tested on: CHD5 (PPCC); assay: Histone peptide microarray; assay type: binding, human; details: sheet "Array Heatmap"; GST-tagged reader; histone peptide array, total n = 4
Outline: as §1

## DIDO1: GST-tagged PHD, 250-340
[1]
  Phase A Optimal Range (reader concentration): 0.015 to 0.5 nM

## H3K9me3 + S10p: H3 1-20
[2]
  loss of binding on S10 phosphorylation: four out of five of the H3K4me0 readers lose binding capacity
[3]
  Array Heatmap signal, SP140L: 0.319
[4]
  Array Heatmap signal, KDM5A (3): 0.3848
[5]
  Array Heatmap signal, TRIM66 (PB): 0.578
[6]
  Array Heatmap signal, KDM5A (1): 0.4357
[7]
  Array Heatmap signal, MLL5: 0.5167
[8]
  Array Heatmap signal, ING5: 0.3112
[9]
  Array Heatmap signal, CHD5 (PCC): 0.7991
[10]
  Array Heatmap signal, PHF2: 0.4043
[11]
  Array Heatmap signal, KDM5B (3): 0.4113
[12]
  Array Heatmap signal, ING3: 0.3956
[13]
  Array Heatmap signal, PHRF1 (RP): 0.515
[14]
  Array Heatmap signal, CHD4 (PPCC): 0.5281
[15]
  Array Heatmap signal, BAZ2B: 0.4277
[16]
  Array Heatmap signal, RAG2: 0.2135
[17]
  Array Heatmap signal, MORC3 (CW): 0.3534
[18]
  Array Heatmap signal, DPF2 (PPC2W2): 0.6544
[19]
  Array Heatmap signal, ING1: 0.4648
[20]
  Array Heatmap signal, DIDO1: 0.5964
[21]
  Array Heatmap signal, PHF13: 0.5317
[22]
  Array Heatmap signal, ING4: 0.3907
[23]
  Array Heatmap signal, BPTF (PB): 0.3029
[24]
  Array Heatmap signal, KDM4C (TTP): 0.4574
[25]
  Array Heatmap signal, PHF23: 0.4606
[26]
  Array Heatmap signal, PHF8: 0.3127
[27]
  Array Heatmap signal, ING2: 0.5763
[28]
  Array Heatmap signal, PHF21A: 0.4454
[29]
  Array Heatmap signal, TAF3: 0.2418
[30]
  Array Heatmap signal, KDM7A: 0.3788
[31]
  Array Heatmap signal, AIRE (PP): 0.5449
[32]
  Array Heatmap signal, KDM5B (1): 0.7016
[33]
  Array Heatmap signal, CHD5 (PPCC): 0.486

## KDM7A: GST-tagged PHD, 1-100
[1]
  Phase A Optimal Range (reader concentration): 0.05 to 1 nM

## MLL5: GST-tagged PHD, 100-180
[1]
  Phase A Optimal Range (reader concentration): 0.015 to 0.05 nM
